Columns and labels:
[1] = system: HCT116 colorectal carcinoma; assay: Cell viability, MTT assay, HCT116; assay type: cell-based, human; conditions: 72 h, mean ± SD
Procedure: Five human cell lines (A375 melanoma, A549 lung adenocarcinoma, HCT116 and HT29 colorectal carcinoma, MDA-MB-231 triple-negative breast adenocarcinoma) were used to study the antitumor effects of the di-tert-butylphenols and their respective carborane analogs. All selected cell lines were derived from inflammation-associated tumors.
After the incubation period, the supernatant was discarded from the wells, and the cells were washed two times with 200 µL of PBS. Next, MTT solution at a final concentration of 0.5 mg/mL was added and incubated at 37 °C until purple formazan crystals were formed (30 min to one hour). After incubation, the dye was discarded. In order to dissolve the formed formazan crystals DMSO was added, and the absorbance was measured at λmax = 540 nm, with the reference/background wavelength of 670 nm. All results are expressed as a percentage of the control value which was arbitrary set to 100%. After 72 h treatment, cells were washed with 200 µL of PBS and fixed with 4% paraformaldehyde (PFA) for 15 min at room temperature (RT). Next, cells were stained with 1% CV solution. After 20 min, cells were washed in tap water and dried on air. Dye was dissolved in 33% acetic acid and the absorbance was measured at λmax = 540 nm, with the reference/background wavelength of 670 nm. Results were expressed as a percentage of the control value which was arbitrary set to 100%.
1. General methods, materials, and procedures
1.1.1. Reagents and cells
Reagents and cells were obtained from following manufacturers: Capricorn Scientific GmbH (Hessen, Germany) – Culture medium RPMI-1640, Dulbecco's Modified Eagle Medium (DMEM), and fetal bovine serum (FBS). Serva (Heidelberg, Germany) – Paraformaldehyde (PFA). Sigma (St. Louis, MO, USA) – Ethylenediaminetetraacetic acid (EDTA), Dimethyl sulfoxide (DMSO), chloroquine, CV, Triton X-100, RNase, PI, PBS, 3-MA, CFSE, and fluorescent mounting medium. AppliChem (MO, USA) –MTT. Thermo Fisher Scientific (Waltham, MA, USA) – DHR. R&D Systems (Minneapolis, MN, USA) – ApoStat. BD (Pharmingen, San Diego, SAD) – Annexin V-FITC (AnnV). Biological Industries (Cromwell, CT, USA) – Penicillin Streptomycin solution. American Type Culture Collection (ATCC, Manassas, Virginia, USA) – Human lung carcinoma (A549), human breast adenocarcinoma (MDA-MB-231), human colorectal ade-nocarcinoma (HT-29), human colorectal carcinoma (HCT116) and human melanoma (A375).
Cell lines (A375, HCT116, HT-29 and MDA-MB-231) were cultivated in HEPES-buffered RPMI-1640 medium while A549 cell line was cultivated in Dulbecco's Modified Eagle Medium (DMEM) which were previously supplemented with 10% heat-inactivated FBS, penicillin (100 units/mL), and streptomycin (100 μg/mL). All cells were kept at 37 °C in a humidified atmosphere with 5% CO2. For viability determi-nation cells were seeded at following densities in 96-well plates: 4 x 10^3 cells/well (A375, HT-29 and MDA-MB-231), 5 x 10^3 cells/well (HCT116), and 3 x 10^3 cells/well (A549). […]
Afterwards, cells were washed with phosphate-buffered saline (PBS) and stained with AnnV (15 μg/mL) and PI (15 μg/mL). […]
PBS and analyzed using flow cytometry. HCT116 cells were stained with 1 µg/mL of AO solution for 15 min at 37 °C to detect the presence of autophagic cell death. Afterwards cells were washed with PBS, resuspended and analyzed by flow cytometry (CyFlow® Space Partec using the PartecFloMax® software

[2] = system: primary peritoneal exudate cells; assay: Viability of primary peritoneal exudate cells, CV assay; assay type: cell-based; conditions: 72 h, cells from healthy mice
Procedure: Primary peritoneal exudates cells (PEC) isolated from C57BL/6 mice were used to estimate the selec-
Mice were obtained from the animal facility at the Institute for Biological Research “Siniša Stanković” - National Institute of the Republic of Serbia, University of Belgrade (Belgrade, Serbia). PEC were cultivated in HEPES-buffered (HEPES = 4-
5% heat-inactivated fetal bovine serum (FBS) and antibiotics under standard growth conditions (37 °C, 5% CO2). For viability determination cells were seeded at a density of 2 x 10^5 cells/well in 96-well plates.
Non-adherent cells were removed two hours after seeding and treatment was applied. Cell viability was determined after 72 h using a crystal violet (CV) assay.
the indicated concentrations for 72 h. Cell viability was determined by the CV test. The data are presented as a mean ± SD from one repre-
sentative out of three independent experiments. *p<0.05 refer to untreated cultures.

[3] = NMR spectroscopic stability study in aqueous DMSO-d6; assay type: physicochemical; conditions: room temperature, in air, four weeks, 1H and 11B{1H} NMR
Text: Solubility and chemical stability in organic solvents, such as aqueous dimethyl sulfoxide (DMSO), are crucial for biological investigations. Therefore, the stability of the p-carborane-containing compounds R-830-Cb, S-2474-Cb, KME-4-Cb, and E-5110-Cb in aqueous DMSO-d6 at room temperature in air was studied by ^1H- and ^11B{^1H}-NMR spectroscopy over four weeks and confirmed that all compounds are stable (see Supplementary Materials, Figure S24).

5-LO = target: T1, 5-LO (Homo sapiens, UniProt P09917); assay: 5-LO product formation in intact PMNL; conditions: read-out: IC50 inhibition of 5-LO product formation in intact PMNL; intact PMNL, A23187 + arachidonic acid, mean of at least three experiments
T1 sequence (P09917 1-674): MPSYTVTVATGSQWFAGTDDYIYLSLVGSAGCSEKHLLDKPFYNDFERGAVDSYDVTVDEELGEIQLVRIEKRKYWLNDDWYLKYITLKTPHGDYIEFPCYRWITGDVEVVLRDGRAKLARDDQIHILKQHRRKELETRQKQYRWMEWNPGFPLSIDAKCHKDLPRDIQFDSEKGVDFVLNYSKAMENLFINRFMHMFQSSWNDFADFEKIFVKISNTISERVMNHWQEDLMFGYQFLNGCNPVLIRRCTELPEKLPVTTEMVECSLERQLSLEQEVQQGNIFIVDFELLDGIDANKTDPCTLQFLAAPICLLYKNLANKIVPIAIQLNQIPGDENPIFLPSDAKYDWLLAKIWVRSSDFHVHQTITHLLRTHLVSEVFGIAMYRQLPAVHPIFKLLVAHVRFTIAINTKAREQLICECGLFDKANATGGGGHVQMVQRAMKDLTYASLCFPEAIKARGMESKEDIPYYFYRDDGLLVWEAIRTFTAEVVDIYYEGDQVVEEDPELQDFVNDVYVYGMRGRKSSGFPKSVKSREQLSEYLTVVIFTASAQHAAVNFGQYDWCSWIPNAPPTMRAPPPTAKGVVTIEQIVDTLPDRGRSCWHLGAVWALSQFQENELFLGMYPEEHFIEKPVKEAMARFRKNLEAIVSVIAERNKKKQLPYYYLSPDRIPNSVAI
Procedure: After 10 min at 37 °C, the reaction was stopped by addition of ice-cold methanol (1 mL). HCl (30 μL, 1 M), prostaglandin B1 (200 ng) and PBS (500 μL) were added and the formed metabolites were extracted and analyzed by HPLC as described previously [96].

IC50 [1] [µM] | stability in aqueous DMSO-d6 [3] | IC50 (5-LO) [µM] | Substance | viability of primary peritoneal exudate cells [2]
144 ± 10.5 | stable | 0.22 | (3E)-1-Hydroxy-12-(methylene-[1′-methoxypyrrolidine-2′-one])-1,12-dicarba-closo-dodecaborane(12) [Compound E-5110-Cb] | –
108 ± 11.5 | stable | < 0.03 | (3E)-1-Hydroxy-12-(methylene-[2′-ethylisothiazolidine-1′,1′-dioxide])-1,12-dicarba-closo-dodecaborane(12) [Compound S-2474-Cb] | –
88.5 ± 4.3 | stable | 0.07 | (3E)-1-Hydroxy-12-(methylene-[dihydrofurane-2′(3H)-one])-1,12-dicarba-closo-dodecaborane(12) [KME-4-Cb] | –

Substance | IC50 [1] [µM] | stability in aqueous DMSO-d6 [3] | IC50 (5-LO) [µM] | viability of primary peritoneal exudate cells [2]
1-Hydroxy-12-(thiophen-2′-carbonyl)-1,12-dicarba-closo-dodecaborane(12) [Compound R-830-Cb] | 40.9 ± 3.1 | stable | 0.65 | completely non-toxic in the applied dose range
